Where a name gives a salt, the structure may show the parent alone.

From US7829114B2, “Capsules containing aqueous fill compositions stabilized with derivatized cyclodextrin” (CyDex Pharmaceuticals, Inc., priority 2002, dated 2010) come the findings set out here.

The nature of series [1]: Clarity / appearance of fill composition. Format: physicochemical. Particulars: normal dose of drug in 1 gram. The source says:
(§1) Agitation continued until all the SAE-CD dissolved.
Clarity of the fill compositions herein can be determined by visual inspection; however, other known methods for determining the clarity of a fill composition can be performed. Exemplary other methods include transmittance spectrophotometry at a wavelength of 800 nm.

Series [2] is described as follows: Shell stability toward aqueous fill composition, statements on soft gelatin capsules. It is filed as physicochemical. Particulars: for stability provided to capsules: about ≧60% wt.
Series [3] in a line: Water activity measurement. Particulars: for Water Activity (approximate values): about 20-25° C. It is filed as physicochemical. How it is done:
Without being held bound to a particular mechanism, it is believed that the increasing the concentration of derivatized cyclodextrin present in the aqueous fill composition results in reduced water activity for the fill composition. The table below provides a summary of water activity versus concentration of cyclodextrin derivatives or some shell-stabilizing materials in water at about 20-25° C., or ambient temperature.
The values detailed above are approximate and can vary from instrument to instrument. These values were determined according to the procedure described herein on a water activity meter described herein. The numbers can also vary within the standard deviation of a particular instrument. It is also possible for the numbers to vary according to the accuracy and reproducibility of the instrument used as well as the method for calibrating the instrument with solution standards of known water activity.
Water activity was measured by placing a sample solution in a small, sealed container and determining the equilibrium humidity and temperature in the container. Instruments such as the HygroLab 3 from Rotronic Instrument Corp. , Huntington, N.Y. were used to measure the water activity. The humidity is determined using a thin film capacitive sensor in the headspace of the container. The temperature is determined using a Pt RTD 100 sensor. From these measurements the activity of water (Aw) is calculated by the instrument. The instrument has an accuracy of about ±0.015 Aw and a repeatability of about ±0.005 Aw. Carefully prepared salt-containing stock solutions of known concentration and water activity were used to calibrate the instrument prior to use.

Series [4] can be described thus: Shell stability on exposure to aqueous fill composition (half-shell integrity test, H.S.I.T.). Particulars: HFC. Format: physicochemical. How it is done: (§2) The same tests were performed on gelatin capsules obtained from CARDINAL HEALTH.
It has been discovered that PEG has a beneficial effect upon the shell-stabilizing property of an aqueous fill composition comprising SAE-CD. FIG. 6a depicts a ternary graph correlating the concentration of SAE-CD, water and PEG in a fill composition to the H.S.I.T. rating of a soft shell capsule exposed to the fill composition. Aqueous fill solutions comprising differing amounts of PEG, SAE-CD and water were prepared. The stability tests were conducted as described below. The HFC soft gelatin capsules described herein were used. For a composition comprising 40% wt. SBE-CD, 40% wt. water and 20% wt. PEG, the shell was stable for greater than 5 days. For a composition comprising 35% wt. SBE-CD, 35% wt. water and 30% wt. PEG, the shell was stable for greater than 5 days. For a composition comprising 18% wt. SBE-CD, 42% wt. water and 40% wt. PEG, the shell was stable for greater than 5 days. Under each of the conditions tested, the control sample excluded SAE-CD, i.e., containing only water and PEG at the indicated concentration, and failed within 24 hours. About the same results were obtained for the HFB (FIG. 6b), LFB (FIG. 7a) and LFC (FIG. 7b) soft gelatin capsules. Increasing the SAE-CD concentration to values higher than those indicated further increases the shelf-life of the shell or provides an HSIT rating of at least 4. Stabilized aqueous fill composition-containing capsule formulations can be achieved with each capsule if the following fill compositions are used.

Assay in series [5]: as above
To be noted: LFB. How it is done:
A study was conducted to determine whether or not complexation of a drug to the SAE-CD alters the ability of the SAE-CD to stabilize the capsule shell against dissolution, erosion, swelling or degradation caused by water in the fill composition enclosed within the capsule shell. Banner's hydrophilic, HFB, and lipophilic, LFB, air fill size 35 oval gelatin capsules were used in this study, which was performed as described below. […] The SAE-CD was slowly added to the water while it was stirring and on a hot plate. Agitation continued until all the SAE-CD dissolved. The SAE-CD was divided by weighing in equal amounts into nine vials (one for each drug). […] The amount of drug added produced a composition that contained a normal dose of drug in 1 gram. The vials were agitated and heated until a solution was obtained or the active was uniformly suspended. […]
Method A: Half-Shell integrity Test (H.S.I.T.)
In a closed container, a portion of a capsule shell is exposed to an aqueous fill composition comprising a known amount of derivatized cyclodextrin, water and optionally one or more other excipients. Observation of changes, or lack thereof, on the exposed portion's size, appearance, shape, dissolution, erosion, degradation, hardness, and/or translucence are recorded periodically over time. A rating scale is used to quantify the overall performance of the capsule portion during the test.

Assay in series [6]: as above
It is filed as physicochemical. Particulars: LFC. How it is done: as §2

Assay in series [7]: as above
Format: physicochemical. Particulars: HFB.
From the text: as §1

[8] abbreviates: 40% wt. cyclodextrin derivative in water.
[9] abbreviates: 50% wt. cyclodextrin derivative in water.
Where [10] appears, read: 60% wt. cyclodextrin derivative in water.
Where [11] appears, read: 70% wt. cyclodextrin derivative in water.

`COc1ccccc1OCCNCC(O)COc1cccc2[nH]c3ccccc3c12` (centres unmarked) [Carvedilol]: the results for the Fill composition appearance entry in series [1] (60% w/w SAE-CD) and in series [1] (70% w/w SAE-CD) were “solution” and “clear solution”, respectively.
For the molecule `C(=C\c1ccccc1)/CN1CCN(C(c2ccccc2)c2ccccc2)CC1` [Cinnarizine], the Fill composition appearance entry in series [1] (60% w/w SAE-CD) and in series [1] (70% w/w SAE-CD) was “suspension” each time.
Take `CC(C)(C(=O)O)c1ccc(C(O)CCCN2CCC(C(O)(c3ccccc3)c3ccccc3)CC2)cc1` (centres unmarked) [Fexofenadine HCl]: the Fill composition appearance entry in series [1] (60% w/w SAE-CD) is recorded as “solution”; in series [1] (70% w/w SAE-CD) it was “clear solution”.
As for `C[C@]12CCC(=O)C=C1CC[C@@H]1[C@@H]2[C@@H](O)C[C@@]2(C)[C@H]1CC[C@]2(O)C(=O)CO` [Hydrocortisone], the Fill composition appearance entry in series [1] (60% w/w SAE-CD) and in series [1] (70% w/w SAE-CD) was “clear solution” each time.
For the molecule `COc1ccc2c(c1)c(CC(=O)O)c(C)n2C(=O)c1ccc(Cl)cc1` [Indomethacin], the Fill composition appearance entry is “solution” in series [1] (60% w/w SAE-CD) and “clear solution” in series [1] (70% w/w SAE-CD).
On to `C[C@]12CCC(=O)C=C1CC[C@@H]1[C@@H]2CC[C@@]2(C)[C@H]1CC[C@]2(C)O` [Methyltestosterone], for which the Fill composition appearance entry in series [1] (60% w/w SAE-CD) and in series [1] (70% w/w SAE-CD) was “clear solution” each time.
`CN[C@H]1CC[C@@H](c2ccc(Cl)c(Cl)c2)c2ccccc21` [Sertraline HCl]: the Fill composition appearance entry in series [1] (60% w/w SAE-CD) is reported as “solution”; in series [1] (70% w/w SAE-CD) it was “clear solution”.
With `C[C@]12CC[C@H]3[C@@H](CCC4=CC(=O)CC[C@@]43C)[C@@H]1CC[C@@H]2O` [Testosterone], the Fill composition appearance entry in series [1] (60% w/w SAE-CD) and in series [1] (70% w/w SAE-CD) was “clear solution” in each case.
As to “Dimethylcyclodextrin [DMCD, reference compound]”, the “effect on stability of the shell” value in series [2] (about 42% wt., maximum achievable concentration, FIG. 2) is on record as “only slightly increased the stability of the shell”. In series [2] (at saturation concentration in water, FIG. 4), the “ability to stabilize soft gelatin capsules from water in the fill composition” value is listed as “unable to stabilize”. Also, in series [3] (43% wt. in water, the approximate saturation concentration), the water activity result was “approximately 0.996”.
For hydroxypropyl cyclodextrin [HP-CD], the “Increase in shell size” value was greater than 3 × × original in series [4] (setting [8]); 2 × × original in series [4] (setting [9]); 2 × × original in series [4] (setting [10]); 1.5 × × original in series [4] (setting [11]); greater than 3 × × original in series [5] (setting [8]); 2 × × original in series [5] (setting [9]). For the same molecule, the “Increase in shell size” value in series [5] (setting [10]) is on record as 2 × × original; in series [5] (setting [11]) it was 1.5 × × original; in series [6] (setting [8]) it was greater than 3 × × original; in series [6] (setting [9]), 2 × × original; in series [6] (setting [10]), 2 × × original; in series [6] (setting [11]), 1.5 × × original. Further, the “Increase in shell size” value in series [7] (setting [8]) was greater than 3 × × original; in series [7] (setting [9]), 2 × × original; in series [7] (setting [10]), 2 × × original; in series [7] (setting [11]), 1.5 × × original. Also, the Observations entry in series [4] (setting [8]) is recorded as “Deformed”; in series [4] (setting [9]), “shape intact”; in series [4] (setting [10]), “Slight deformity”; in series [4] (setting [11]), “Shape intact”; in series [5] (setting [8]) it was “Deformed”; in series [5] (setting [9]), “shape intact”. The Observations result in series [5] (setting [10]) was “Shape intact”; in series [5] (setting [11]) it was “Shape intact”; in series [6] (setting [8]), “Deformed”; in series [6] (setting [9]), “Shape intact”; in series [6] (setting [10]), “Slight deformity”; in series [6] (setting [11]) it was “Shape intact”. The Observations result in series [7] (setting [8]) is given as “Deformed”; in series [7] (setting [9]), “shape intact”; in series [7] (setting [10]), “Shape intact”; in series [7] (setting [11]), “Shape intact”. Also, the Time for failure in series [4] (setting [8]) is reported as 2 days; in series [4] (setting [9]), 4 days; in series [4] (setting [10]), 7 days; in series [4] (setting [11]) it was 14 days; in series [5] (setting [8]) it was 2 days; in series [5] (setting [9]), 4 days. Further, the Time for failure is 7 days in series [5] (setting [10]); 14 days in series [5] (setting [11]); 2 days in series [6] (setting [8]); 4 days in series [6] (setting [9]); 7 days in series [6] (setting [10]); 14 days in series [6] (setting [11]). Further, the Time for failure was 2 days in series [7] (setting [8]), 4 days in series [7] (setting [9]), 7 days in series [7] (setting [10]) and 14 days in series [7] (setting [11]). Besides, the “shelf-life of soft gelatin capsules” value in series [2] (60% wt. or more based upon total weight of water and HP-CD) is “at least one week”. In addition, the “stability provided to capsules” value is “at least one week stability” in series [2] (LFB and LFC soft gelatin capsules as printed, FIG. 2); “at least a one-week stability” in series [2] (LFB and LFC soft gelatin capsules, FIG. 1). Also, the “Water Activity (approximate values)” value in series [3] (10 % w/w in water) is listed as roughly 0.99; in series [3] (20 % w/w in water) it was roughly 0.99; in series [3] (30 % w/w in water), roughly 0.98; in series [3] (40 % w/w in water), roughly 0.98; in series [3] (50 % w/w in water), roughly 0.97; in series [3] (60 % w/w in water), roughly 0.94. Besides, the “Water Activity (approximate values)” value in series [3] (70 % w/w in water) is on record as roughly 0.93.
